SMILES strings stand for the structures. Structures can show the parent of a compound that is named as a salt.

The CC50 is the concentration giving 50% cytotoxicity. Higher therefore signals better tolerance by the cells.

A short description of the first data set: in vitro. Particulars: rat, gh3-tre-luc cells, AC50 (uM) modified / 1000.
In turn, `CCCCC(CC)C(=O)OCCOCCOCCOC(=O)C(CC)CCCC` (centres unmarked) [Triethylene glycol bis(2-ethylhexanoate)] displayed a CC50 at 24 h above 90 µM. Same read-out and setting: under `CC(=O)OCCOCCOCCOC(C)=O` [Triethylene glycol diacetate] stands above 90 µM; under `O=C(OCCOCCOCCOC(=O)c1ccccc1)c1ccccc1` [Triethylene glycol dibenzoate], above 90 µM; under `C=C(C)C(=O)OCCOCCOCCOC(=O)C(=C)C` [Triethylene glycol dimethacrylate], above 90 µM. Compound `COCCOCCOCCOC` [Triethylene glycol dimethyl ether] yielded a CC50 at 24 h above 90 µM.

Consider `OCCOCCOCCO` [Triethylene glycol], for which the CC50 at 24 h was above 100 µM. Still for that read-out and setting: under `NCCNCCNCCN` [Triethylenetetramine] stands above 90 µM; under `C[CH2][Ge]([Cl])([CH2]C)[CH2]C` [Triethylgermanium chloride], above 90 µM. Still for that read-out and setting: the figure for `O=S(=O)(NS(=O)(=O)C(F)(F)F)C(F)(F)F` [Triethylsulfonium bis(trifluoromethanesulfonyl)imide] is above 90 µM. Consider `CO/N=C(/C(=O)OC)c1ccccc1CO/N=C(\C)c1cccc(C(F)(F)F)c1` [Trifloxystrobin], for which half-maximal cytotoxicity (CC50 at 24 h) was put at 36.9 µM. Same read-out and setting: under `CCCOC/C(=N\c1ccc(Cl)cc1C(F)(F)F)n1ccnc1` [Triflumizole] stands 58.4 µM; under `O=C(NC(=O)c1ccccc1Cl)Nc1ccc(OC(F)(F)F)cc1` [Triflumuron], above 90 µM. The same measure, in the same setting: under `CC(CN(C)C)CN1c2ccccc2Sc2ccc(C(F)(F)F)cc21` (centres unmarked) [Trifluomeprazine 2-butenedioate] stands 9.4 µM.

Turning to `O=S(=O)(O)C(F)(F)F` [Trifluoromethanesulfonic acid], the CC50 at 24 h is above 90 µM. Same read-out and setting: the figure for `O=C(CCCN1CCC(O)(c2cccc(C(F)(F)F)c2)CC1)c1ccc(F)cc1` [Trifluperidol hydrochloride] is 24 µM; for `CN(C)CCCN1c2ccccc2Sc2ccc(C(F)(F)F)cc21` [Triflupromazine hydrochloride] it is 9.02 µM. The same measure, in the same setting: under `O=c1[nH]c(=O)n([C@H]2C[C@H](O)[C@@H](CO)O2)cc1C(F)(F)F` [Trifluridine] stands above 50 µM. Regarding `CC(=O)Oc1cc(C(F)(F)F)ccc1C(=O)O` [Triflusal], the CC50 at 24 h was above 20 µM. On to `O=CNC(N1CCN(C(NC=O)C(Cl)(Cl)Cl)CC1)C(Cl)(Cl)Cl` (centres unmarked) [Triforine], for which the CC50 at 24 h was above 90 µM. Take `CCCCCCCCCCCCCC[P+](CCCCCC)(CCCCCC)CCCCCC` [Trihexyltetradecylphosphonium chloride]: the midpoint of cytotoxicity, the CC50 at 24 h, lay at 5.15 µM. With `OC(CCN1CCCCC1)(c1ccccc1)C1CCCCC1` (centres unmarked) [Trihexyphenidyl hydrochloride], the CC50 at 24 h is above 50 µM. Still for that read-out and setting: the figure for `CC(C)C[P+](C)(CC(C)C)CC(C)C` [Triisobutylmethylphosphonium tosylate] is above 90 µM; for `CC(C)CCCCCCCOC(=O)c1ccc(C(=O)OCCCCCCCC(C)C)c(C(=O)OCCCCCCCC(C)C)c1` [Triisodecyl trimellitate] it is above 80 µM; for `CC(C)CCCCCCOC(=O)c1ccc(C(=O)OCCCCCCC(C)C)c(C(=O)OCCCCCCC(C)C)c1` [Triisononyl trimellitate] it is above 90 µM. Consider `CC(C)OB(OC(C)C)OC(C)C` [Triisopropyl orthoborate], for which the CC50 at 24 h is above 90 µM.

As for `C[C@]12CC[C@H]3[C@@H](CC[C@@]45O[C@@H]4C(O)=C(C#N)C[C@]35C)[C@@H]1CC[C@@H]2O` [Trilostane], the CC50 at 24 h was above 90 µM. Same read-out and setting: under `CCC(COC(=O)c1cc(OC)c(OC)c(OC)c1)(c1ccccc1)N(C)C` (centres unmarked) [Trimebutine maleate] stands above 50 µM; under `CCN(CC)CC(=O)Nc1c(C)cc(C)cc1C` [Trimecaine monohydrochloride], above 50 µM. Same read-out and setting: under `O=C(O)c1ccc2c(c1)C(=O)OC2=O` [Trimellitic anhydride] stands above 90 µM.

With `CC(CN(C)C)CN1c2ccccc2Sc2ccccc21` (centres unmarked) [Trimeprazine tartrate], the CC50 at 24 h was 4.36 µM. The compound `COc1ccc(CN2CCNCC2)c(OC)c1OC` [Trimetazidine dihydrochloride] returned a CC50 at 24 h above 20 µM. `CC12CCC(C[N+](C)(CCC[N+](C)(C)C)C1)C2(C)C` (centres unmarked) [Trimethidinium methyl sulfate] showed a CC50 at 24 h above 50 µM.

The compound `COc1cc(C(=O)NCc2ccc(OCCN(C)C)cc2)cc(OC)c1OC` [Trimethobenzamide hydrochloride] registered a CC50 at 24 h above 20 µM. With `COc1cc(Cc2cnc(N)nc2N)cc(OC)c1OC` [Trimethoprim], the CC50 at 24 h is above 90 µM. On to `COc1cc(C[C@@H]2NCCc3cc(O)c(O)cc32)cc(OC)c1OC` [Trimethoquinol], for which the CC50 at 24 h is above 50 µM. `COC(OC)OC` [Trimethoxymethane] displayed a CC50 at 24 h above 90 µM. As to `CO[Si](C)(OC)OC` [Trimethoxymethylsilane], the CC50 at 24 h was above 90 µM. Same read-out and setting: the figure for `CO[Si](OC)(OC)c1ccccc1` [Trimethoxyphenylsilane] is above 90 µM; for `CCC[Si](OC)(OC)OC` [Trimethoxypropylsilane] it is above 90 µM. Still for that read-out and setting: under `COC(=O)c1ccc(C(=O)OC)c(C(=O)OC)c1` [Trimethyl benzene-1,2,4-tricarboxylate] stands above 90 µM.

With `CN(C)C` [Trimethylamine hydrochloride], the CC50 at 24 h is above 90 µM. Same read-out and setting: the figure for `CC(CCCCN)C(C)(C)N` (centres unmarked) [Trimethylhexane-1,6-diamine] is above 200 µM; for `C=CC(=O)OCCOCC(CC)(COCCOC(=O)C=C)COCCOC(=O)C=C` [Trimethylolpropane ethoxylate triacrylate] it is 23.1 µM; for `C[Si](C)(C)O[Si](O)(O)O` [Trimethylsilyl silicate] it is above 90 µM. Same read-out and setting: under `COc1cc(C(=O)N2CCOCC2)cc(OC)c1OC` [Trimetozine] stands above 50 µM. Still for that read-out and setting: the figure for `COc1cc(NCc2ccc3nc(N)nc(N)c3c2C)cc(OC)c1OC` [Trimetrexate trihydrochloride] is 8.81 µM; for `CC(CN(C)C)CN1c2ccccc2CCc2ccccc21` (centres unmarked) [Trimipramine maleate] it is 4.77 µM. Regarding `CCOC(=O)C1CC(=O)C(=C(O)C2CC2)C(=O)C1` (centres unmarked) [Trinexapac-ethyl], the CC50 at 24 h was above 90 µM. `CCCCCCCCOC(=O)c1ccc(C(=O)OCCCCCCCC)c(C(=O)OCCCCCCCC)c1` [Trioctyl trimellitate] displayed a CC50 at 24 h above 90 µM. On the same count and under the same terms, the figure for `Cc1cc2cc3c(C)cc(=O)oc3c(C)c2o1` [Trioxsalen] is above 20 µM; for `CCCCCCCCCCCCCCCC(=O)OCC(COC(=O)CCCCCCCCCCCCCCC)OC(=O)CCCCCCCCCCCCCCC` [Tripalmitin] it is above 50 µM. Still for that read-out and setting: under `CCN(CC)CCOc1ccc(C(O)(Cc2ccc(Cl)cc2)c2ccc(C)cc2)cc1` (centres unmarked) [Triparanol] stands 8.76 µM; under `CN(C)CCN(Cc1ccccc1)c1ccccn1` [Tripelennamine citrate], above 50 µM; under `c1ccc(B(c2ccccc2)c2ccccc2)cc1` [Triphenylborane], above 90 µM. In turn, `C(=C(c1ccccc1)c1ccccc1)c1ccccc1` [Triphenylethylene] displayed a 50% cytotoxic concentration (CC50) at 24 h above 90 µM.

`O=P(c1ccccc1)(c1ccccc1)c1ccccc1` [Triphenylphosphine oxide] gave a CC50 at 24 h above 90 µM. On to `c1ccc(P(c2ccccc2)c2ccccc2)cc1` [Triphenylphosphine], for which the CC50 at 24 h was above 90 µM. Compound `Cc1ccc(/C(=C\CN2CCCC2)c2ccccn2)cc1` [Triprolidine hydrochloride monohydrate] showed a CC50 at 24 h of 58.4 µM. `CCCOC(OCCC)OCCC` [Tripropyl orthoformate] showed a 50% cytotoxic concentration (CC50) at 24 h above 90 µM. Take `CCCCOC(CC)OC(C)COC(O)CC` (centres unmarked) [Tripropylene glycol butyl ether]: the CC50 at 24 h is above 90 µM. The same measure, in the same setting: the figure for `C=CC(=O)OCC(C)OCC(C)OCC(C)OC(=O)C=C` (centres unmarked) [Tripropylene glycol diacrylate] is 36.2 µM; for `CC(O)COC(C)COC(C)CO` (centres unmarked) [Tripropylene glycol] it is above 90 µM. For `CC(CCl)OP(=O)(OC(C)CCl)OC(C)CCl` (centres unmarked) [Tris(2-chloroisopropyl)phosphate], the CC50 at 24 h is above 90 µM.

Still in this data set, the particulars now being: rat, gh3-tre-luc cells, AC50 (uM) modified / 1000, Tox21_110001=Tox21_201254; viability, 1 nM T3 present, 24 h.
Compound `O=P(OCCCl)(OCCCl)OCCCl` [Tris(2-chloroethyl) phosphate] returned a CC50 at 24 h above 90 µM.

The same data set, now with this note: rat, gh3-tre-luc cells, AC50 (uM) modified / 1000, Tox21_110001=Tox21_201511; viability, 1 nM T3 present, 24 h.
`O=P(Oc1ccccc1)(Oc1ccccc1)Oc1ccccc1` [Triphenyl phosphate]: the CC50 at 24 h is above 90 µM.

The data set is the same for the next values; noted with them: rat, gh3-tre-luc cells, AC50 (uM) modified / 1000, Tox21_110001=Tox21_201593; viability, 1 nM T3 present, 24 h.
`CCCCOCCOP(=O)(OCCOCCCC)OCCOCCCC` [Tris(2-butoxyethyl) phosphate] registered a CC50 at 24 h above 90 µM.

The data set is the same for the next values; noted with them: rat, gh3-tre-luc cells, AC50 (uM) modified / 1000, Tox21_110001=Tox21_201798; viability, 1 nM T3 present, 24 h.
The compound `O=P(OCC(Br)CBr)(OCC(Br)CBr)OCC(Br)CBr` (centres unmarked) [Tris(2,3-dibromopropyl) phosphate] had a CC50 at 24 h of 30.4 µM.

Still in this data set, the particulars now being: rat, gh3-tre-luc cells, AC50 (uM) modified / 1000, Tox21_110001=Tox21_201952; viability, 1 nM T3 present, 24 h.
`CC(O)CN(CC(C)O)CC(C)O` (centres unmarked) [Triisopropanolamine] came in with a CC50 at 24 h above 90 µM.

The data set is the same for the next values; noted with them: rat, gh3-tre-luc cells, AC50 (uM) modified / 1000, Tox21_110001=Tox21_301184; viability, 1 nM T3 present, 24 h.
As to `COc1cc(OC)nc(NC(=O)NS(=O)(=O)c2ncccc2OCC(F)(F)F)n1` [Trifloxysulfuron-sodium], the CC50 at 24 h is above 90 µM.

The same data set, now with this note: rat, gh3-tre-luc cells, AC50 (uM) modified / 1000, Tox21_110001=Tox21_302891; viability, 1 nM T3 present, 24 h.
In turn, `CCCCOCCOP(=O)(OCCOCCCC)OCCOCCCC` [Tris(2-butoxyethyl) phosphate] returned a CC50 at 24 h of 58.5 µM.

Staying with this data set, now noted: rat, gh3-tre-luc cells, AC50 (uM) modified / 1000, Tox21_110001=Tox21_302967; viability, 1 nM T3 present, 24 h.
`O=P(OCC(Br)CBr)(OCC(Br)CBr)OCC(Br)CBr` (centres unmarked) [Tris(2,3-dibromopropyl) phosphate] had a CC50 at 24 h of 54.5 µM. In other words, the double-digit micromolar range.

For the origin of these results see publication PMC6792352, “Limited Chemical Structural Diversity Found to Modulate Thyroid Hormone Receptor in the Tox21 Chemical Library” (Environmental Health Perspectives, 2019).
